The test system of series [1] is M. tb H37Rv-GFP. The series can be described thus: microbe, parasite or virus in culture. The class given is cell-based. The note with it: Mycobacterium tuberculosis, 120 h, read-out: Extracellular growth IC50.
In series [2] the test system is M. tb H37Rv-GFP. Kind of series: microbe, parasite or virus in culture. Type of series: cell-based. The note with it: Mycobacterium tuberculosis, RAW264.7, 120 h, read-out: Intracellular macrophage growth IC50.
The next series is described as follows: in vitro. To be noted: mouse.

Like-named read-outs stand apart in the source and are kept apart here. Some results are limits rather than exact numbers.

With `CCc1cc(C(N)=S)ccn1` [Ethionamide], the IC50 in the series on M. tb H37Rv-GFP [1] and with M. tb H37Rv-GFP [2] was 6000 nM each time. The compound also had a CC50 in “in vitro” of 120 µM.

Regarding `CO[C@H]1/C=C/O[C@@]2(C)Oc3c(C)c(O)c4c(O)c(c(/C=N/N5CCN(C)CC5)c(O)c4c3C2=O)NC(=O)/C(C)=C\C=C\[C@H](C)[C@H](O)[C@@H](C)[C@@H](O)[C@@H](C)[C@H](OC(C)=O)[C@@H]1C` [Rifampin], the figures for the concentration for half-maximal inhibition (IC50) with M. tb H37Rv-GFP [1] and in the series with M. tb H37Rv-GFP [2] were 10 nM and 2900 nM, respectively. Further, in the series “in vitro”, the CC50 amounted to 24 µM.

Consider `NNC(=O)c1ccncc1` [Isoniazid], for which the IC50 in the series on M. tb H37Rv-GFP [1] and in the series on M. tb H37Rv-GFP [2] was 1200 nM throughout. Moreover, the CC50 in the series “in vitro” is over 150 µM.

In general, IC50 refers to the concentration that gives 50% inhibition.

For the origin of these results see patent US10047112B2, “Fluorescent labeled inhibitors” (priority 2014, dated 2018).
